Consider five compounds from the supplement of paper PMC10307832.

SMILES strings stand for the structures.

The first assay has as its system COR-L23. Put plainly: relative viability (nuclei count vs DMSO), 5 days (fraction); higher = more cells survive. The settings on record: first compound 8 µM. In outline: (§1)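 Dosing by pin tool came one day after lung cancer cell lines were seeded in 1536-well plates, using either one drug or a fixed anchor-drug dose plus five library-drug doses (not always all listed) in √10 steps. After 5 days, nuclei were counted on 4× images. Relative viability is treated-well nuclei count divided by vehicle-well nuclei count, and values are medians of duplicate plates.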
The compound `CCCCCCCCCCCC1=C(O)C(=O)C=C(O)C1=O` [Embelin] + CC(=O)Nc1cccc(-n2c(=O)n(C3CC3)c(=O)c3c(Nc4ccc(I)cc4F)n(C)c(=O)c(C)c32)c1 [Trametinib] (partner 0.02 µM) returned a relative viability of 0.608.

`CCCCCCCCCCCC1=C(O)C(=O)C=C(O)C1=O` [Embelin] + Nc1ncn([C@H]2C[C@H](O)[C@@H](CO)O2)c(=O)n1 [Decitabine] (partner 2 µM) yielded a relative viability of 0.393.

Turning to `CCCCCCCCCCCC1=C(O)C(=O)C=C(O)C1=O` [Embelin] + COc1cccc2cc(-c3nc([C@H]4CC[C@H](C(=O)O)CC4)n4ncnc(N)c34)[nH]c12 [OSI-027] (partner 0.5 µM), the relative viability came out at 0.921.

Regarding `CCCCCCCCCCCC1=C(O)C(=O)C=C(O)C1=O` [Embelin] + Nc1nc2[nH]cc(CCc3ccc(C(=O)N[C@@H](CCC(=O)O)C(=O)O)cc3)c2c(=O)[nH]1 [Pemetrexed] (partner 0.2 µM), the relative viability came out at 0.191.

In a further assay the test system is NCI-H838. The assay is described as above. The settings on record: first compound 0.08 µM. In a few lines:
as §1
`CCCCCCCCCCCC1=C(O)C(=O)C=C(O)C1=O` [Embelin] + Cc1cc(Nc2cc(N3CCN(C)CC3)nc(Sc3ccc(NC(=O)C4CC4)cc3)n2)n[nH]1 [Tozasertib] (partner 0.1 µM): the relative viability stood at 0.298.

`CCCCCCCCCCCC1=C(O)C(=O)C=C(O)C1=O` [Embelin] + CC(=O)Nc1cccc(-n2c(=O)n(C3CC3)c(=O)c3c(Nc4ccc(I)cc4F)n(C)c(=O)c(C)c32)c1 [Trametinib] (partner 0.02 µM) showed a relative viability of 0.523.

`CCCCCCCCCCCC1=C(O)C(=O)C=C(O)C1=O` [Embelin] + Nc1ncn([C@H]2C[C@H](O)[C@@H](CO)O2)c(=O)n1 [Decitabine] (partner 2 µM) displayed a relative viability of 0.478.

For the compound `CCCCCCCCCCCC1=C(O)C(=O)C=C(O)C1=O` [Embelin] + COc1cccc2cc(-c3nc([C@H]4CC[C@H](C(=O)O)CC4)n4ncnc(N)c34)[nH]c12 [OSI-027] (partner 0.5 µM), the relative viability stood at 0.403.

As for `CCCCCCCCCCCC1=C(O)C(=O)C=C(O)C1=O` [Embelin] + Nc1nc2[nH]cc(CCc3ccc(C(=O)N[C@@H](CCC(=O)O)C(=O)O)cc3)c2c(=O)[nH]1 [Pemetrexed] (partner 0.2 µM), the relative viability stood at 0.271.

Staying with this assay, now noted: first compound 0.8 µM.
With `CCCCCCCCCCCC1=C(O)C(=O)C=C(O)C1=O` [Embelin] + Cc1cc(Nc2cc(N3CCN(C)CC3)nc(Sc3ccc(NC(=O)C4CC4)cc3)n2)n[nH]1 [Tozasertib] (partner 0.1 µM), the relative viability was 0.272.

`CCCCCCCCCCCC1=C(O)C(=O)C=C(O)C1=O` [Embelin] + CC(=O)Nc1cccc(-n2c(=O)n(C3CC3)c(=O)c3c(Nc4ccc(I)cc4F)n(C)c(=O)c(C)c32)c1 [Trametinib] (partner 0.02 µM): the relative viability was determined as 0.705.

`CCCCCCCCCCCC1=C(O)C(=O)C=C(O)C1=O` [Embelin] + Nc1ncn([C@H]2C[C@H](O)[C@@H](CO)O2)c(=O)n1 [Decitabine] (partner 2 µM) displayed a relative viability of 0.485.

For the compound `CCCCCCCCCCCC1=C(O)C(=O)C=C(O)C1=O` [Embelin] + COc1cccc2cc(-c3nc([C@H]4CC[C@H](C(=O)O)CC4)n4ncnc(N)c34)[nH]c12 [OSI-027] (partner 0.5 µM), the relative viability was found to be 0.463.

`CCCCCCCCCCCC1=C(O)C(=O)C=C(O)C1=O` [Embelin] + Nc1nc2[nH]cc(CCc3ccc(C(=O)N[C@@H](CCC(=O)O)C(=O)O)cc3)c2c(=O)[nH]1 [Pemetrexed] (partner 0.2 µM) registered a relative viability of 0.238.

Still in this assay, the particulars now being: first compound 2.53 µM.
`CCCCCCCCCCCC1=C(O)C(=O)C=C(O)C1=O` [Embelin] + Cc1cc(Nc2cc(N3CCN(C)CC3)nc(Sc3ccc(NC(=O)C4CC4)cc3)n2)n[nH]1 [Tozasertib] (partner 0.1 µM) registered a relative viability of 0.282.

In turn, `CCCCCCCCCCCC1=C(O)C(=O)C=C(O)C1=O` [Embelin] + CC(=O)Nc1cccc(-n2c(=O)n(C3CC3)c(=O)c3c(Nc4ccc(I)cc4F)n(C)c(=O)c(C)c32)c1 [Trametinib] (partner 0.02 µM) returned a relative viability of 0.571.

Compound `CCCCCCCCCCCC1=C(O)C(=O)C=C(O)C1=O` [Embelin] + Nc1ncn([C@H]2C[C@H](O)[C@@H](CO)O2)c(=O)n1 [Decitabine] (partner 2 µM) came in with a relative viability of 0.502.

`CCCCCCCCCCCC1=C(O)C(=O)C=C(O)C1=O` [Embelin] + COc1cccc2cc(-c3nc([C@H]4CC[C@H](C(=O)O)CC4)n4ncnc(N)c34)[nH]c12 [OSI-027] (partner 0.5 µM) came in with a relative viability of 0.38.

Compound `CCCCCCCCCCCC1=C(O)C(=O)C=C(O)C1=O` [Embelin] + Nc1nc2[nH]cc(CCc3ccc(C(=O)N[C@@H](CCC(=O)O)C(=O)O)cc3)c2c(=O)[nH]1 [Pemetrexed] (partner 0.2 µM) showed a relative viability of 0.252.

Still in this assay, the particulars now being: first compound 8 µM.
Consider `CCCCCCCCCCCC1=C(O)C(=O)C=C(O)C1=O` [Embelin] + Cc1cc(Nc2cc(N3CCN(C)CC3)nc(Sc3ccc(NC(=O)C4CC4)cc3)n2)n[nH]1 [Tozasertib] (partner 0.1 µM), for which the relative viability came out at 0.295.

`CCCCCCCCCCCC1=C(O)C(=O)C=C(O)C1=O` [Embelin] + CC(=O)Nc1cccc(-n2c(=O)n(C3CC3)c(=O)c3c(Nc4ccc(I)cc4F)n(C)c(=O)c(C)c32)c1 [Trametinib] (partner 0.02 µM) came in with a relative viability of 0.511.

`CCCCCCCCCCCC1=C(O)C(=O)C=C(O)C1=O` [Embelin] + Nc1ncn([C@H]2C[C@H](O)[C@@H](CO)O2)c(=O)n1 [Decitabine] (partner 2 µM) came in with a relative viability of 0.321.

With `CCCCCCCCCCCC1=C(O)C(=O)C=C(O)C1=O` [Embelin] + COc1cccc2cc(-c3nc([C@H]4CC[C@H](C(=O)O)CC4)n4ncnc(N)c34)[nH]c12 [OSI-027] (partner 0.5 µM), the relative viability worked out at 0.436.

`CCCCCCCCCCCC1=C(O)C(=O)C=C(O)C1=O` [Embelin] + Nc1nc2[nH]cc(CCc3ccc(C(=O)N[C@@H](CCC(=O)O)C(=O)O)cc3)c2c(=O)[nH]1 [Pemetrexed] (partner 0.2 µM) returned a relative viability of 0.247.

The test system of a further assay is HCC-78. Described as above. The settings on record: first compound 0.08 µM. In a few lines: as §1
In the case of `CCCCCCCCCCCC1=C(O)C(=O)C=C(O)C1=O` [Embelin] + Cc1cc(Nc2cc(N3CCN(C)CC3)nc(Sc3ccc(NC(=O)C4CC4)cc3)n2)n[nH]1 [Tozasertib] (partner 0.1 µM), the relative viability turned out to be 0.519.

Take `CCCCCCCCCCCC1=C(O)C(=O)C=C(O)C1=O` [Embelin] + CC(=O)Nc1cccc(-n2c(=O)n(C3CC3)c(=O)c3c(Nc4ccc(I)cc4F)n(C)c(=O)c(C)c32)c1 [Trametinib] (partner 0.02 µM): the relative viability was found to be 0.834.

For `CCCCCCCCCCCC1=C(O)C(=O)C=C(O)C1=O` [Embelin] + Nc1ncn([C@H]2C[C@H](O)[C@@H](CO)O2)c(=O)n1 [Decitabine] (partner 2 µM), the relative viability stood at 0.739.

Compound `CCCCCCCCCCCC1=C(O)C(=O)C=C(O)C1=O` [Embelin] + COc1cccc2cc(-c3nc([C@H]4CC[C@H](C(=O)O)CC4)n4ncnc(N)c34)[nH]c12 [OSI-027] (partner 0.5 µM) had a relative viability of 0.371.

For the compound `CCCCCCCCCCCC1=C(O)C(=O)C=C(O)C1=O` [Embelin] + Nc1nc2[nH]cc(CCc3ccc(C(=O)N[C@@H](CCC(=O)O)C(=O)O)cc3)c2c(=O)[nH]1 [Pemetrexed] (partner 0.2 µM), the relative viability was 0.924.
